# Assay results: paper PMC7262789 (Journal of medicinal chemistry, 2019)
# “Also recorded” adds a separate entry of the source.
# What was measured:
# [1] = target: T1, LXRα (Homo sapiens, UniProt Q13133); experiment: Gal4 hybrid reporter gene assay in HEK293T cells; type: cell-based; details: at 10 μM; reference T0901317 1 μM
# T1 sequence (Q13133 209-447 limits assumed): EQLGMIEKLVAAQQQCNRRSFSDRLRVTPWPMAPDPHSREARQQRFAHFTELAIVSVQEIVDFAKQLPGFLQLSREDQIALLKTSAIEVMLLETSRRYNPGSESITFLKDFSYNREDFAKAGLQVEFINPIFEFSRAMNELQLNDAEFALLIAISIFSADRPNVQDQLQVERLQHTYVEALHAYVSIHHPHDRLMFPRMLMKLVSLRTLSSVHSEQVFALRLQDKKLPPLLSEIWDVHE
# [2] = target: T2, PPARγ (Homo sapiens, UniProt P37231); experiment: Gal4 hybrid reporter gene assay in HEK293T cells; type: cell-based; details: at 10 μM; reference pioglitazone 1 μM
# T2 sequence (P37231 238-503 limits assumed): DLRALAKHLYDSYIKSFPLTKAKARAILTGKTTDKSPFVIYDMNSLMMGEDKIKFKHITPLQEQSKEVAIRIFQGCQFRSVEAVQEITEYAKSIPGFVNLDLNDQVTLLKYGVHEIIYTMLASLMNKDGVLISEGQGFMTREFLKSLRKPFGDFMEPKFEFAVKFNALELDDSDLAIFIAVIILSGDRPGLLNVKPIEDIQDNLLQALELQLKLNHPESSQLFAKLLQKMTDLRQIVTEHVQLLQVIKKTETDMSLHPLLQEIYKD
# [3] = target: T3, PPARα (Homo sapiens, UniProt Q07869); experiment: Gal4 hybrid reporter gene assay in HEK293T cells; type: cell-based; details: at 10 μM; reference GW7647 1 μM
# T3 sequence (Q07869 239-466 limits assumed): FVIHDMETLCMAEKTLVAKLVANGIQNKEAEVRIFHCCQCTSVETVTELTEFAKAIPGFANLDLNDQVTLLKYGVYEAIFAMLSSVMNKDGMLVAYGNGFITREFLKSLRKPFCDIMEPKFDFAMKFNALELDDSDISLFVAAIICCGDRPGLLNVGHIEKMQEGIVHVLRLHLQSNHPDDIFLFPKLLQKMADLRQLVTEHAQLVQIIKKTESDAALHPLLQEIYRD
# [4] = target: T4, LXRβ (Homo sapiens, UniProt P55055); experiment: Gal4 hybrid reporter gene assay in HEK293T cells; type: cell-based; details: at 10 μM; reference T0901317 1 μM
# T4 sequence (P55055 222-460 limits assumed): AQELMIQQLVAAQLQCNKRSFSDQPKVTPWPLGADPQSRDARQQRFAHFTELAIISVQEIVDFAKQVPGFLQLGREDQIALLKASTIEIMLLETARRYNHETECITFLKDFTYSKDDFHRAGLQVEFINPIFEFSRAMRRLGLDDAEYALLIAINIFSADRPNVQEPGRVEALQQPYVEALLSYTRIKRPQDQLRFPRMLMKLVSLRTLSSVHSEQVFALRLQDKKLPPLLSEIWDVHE
# [5] = target: T5, PPARβ/δ (Homo sapiens, UniProt Q03181); experiment: Gal4 hybrid reporter gene assay in HEK293T cells; type: cell-based; details: at 10 μM; reference L165,041 1 μM
# T5 sequence (Q03181 211-439 limits assumed): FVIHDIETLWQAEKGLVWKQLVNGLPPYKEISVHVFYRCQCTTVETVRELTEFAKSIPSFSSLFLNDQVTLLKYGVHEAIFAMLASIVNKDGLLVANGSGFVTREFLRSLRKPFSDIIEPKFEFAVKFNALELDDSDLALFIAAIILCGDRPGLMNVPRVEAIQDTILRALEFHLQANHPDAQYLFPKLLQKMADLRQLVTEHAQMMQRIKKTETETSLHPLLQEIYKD
# [6] = Pharmacokinetic study in male Sprague-Dawley rats; type: in vivo, rat; details: 30 mg/kg p.o., male SD rats
# [7] = system: sEH-H; experiment: Epoxy fatty acid/diol ratios in rat plasma by LC-MS/MS; type: in vivo; details: rat plasma 8 h after 30 mg/kg p.o., vs vehicle
# [8] = target: T6, isolated N-terminal domain of sEH (sEH-P) (Homo sapiens, UniProt P34913); experiment: DiFMUP-based phosphatase assay, isolated N-terminal domain; details: DiFMUP substrate
# T6 sequence (P34913 1-222): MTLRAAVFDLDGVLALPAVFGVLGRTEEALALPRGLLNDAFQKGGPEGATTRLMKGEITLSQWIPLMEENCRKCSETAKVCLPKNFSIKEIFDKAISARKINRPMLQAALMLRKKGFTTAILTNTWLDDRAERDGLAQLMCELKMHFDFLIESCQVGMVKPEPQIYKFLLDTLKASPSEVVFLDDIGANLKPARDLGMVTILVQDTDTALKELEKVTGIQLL
# [9] = target: T7, recombinant sEH-P domain (N-terminal domain of sEH) (Homo sapiens, UniProt P34913); experiment: FDP-based phosphatase assay, isolated sEH-P domain; type: biochemical; details: FDP substrate, recombinant sEH-P domain
# T7 sequence (P34913 1-222): T6 sequence (P34913 1-222)
# [10] = target: T8, N-terminal domain of sEH (sEH-P) (Homo sapiens, UniProt P34913); experiment: Differential scanning fluorimetry; type: binding; details: inhibitor 50 μM
# T8 sequence (P34913 2-224): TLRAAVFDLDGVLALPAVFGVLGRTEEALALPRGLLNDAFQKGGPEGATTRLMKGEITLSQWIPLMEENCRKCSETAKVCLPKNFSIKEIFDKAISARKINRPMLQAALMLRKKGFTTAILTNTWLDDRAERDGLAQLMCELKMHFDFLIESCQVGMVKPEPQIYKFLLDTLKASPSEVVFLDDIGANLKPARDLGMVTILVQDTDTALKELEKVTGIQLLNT
# [11] = target: T9, human fl sEH (sEH-H activity) (Homo sapiens, UniProt P34913); experiment: PHOME-based hydrolase assay, full-length human sEH; type: biochemical
# T9 sequence (P34913 1-555): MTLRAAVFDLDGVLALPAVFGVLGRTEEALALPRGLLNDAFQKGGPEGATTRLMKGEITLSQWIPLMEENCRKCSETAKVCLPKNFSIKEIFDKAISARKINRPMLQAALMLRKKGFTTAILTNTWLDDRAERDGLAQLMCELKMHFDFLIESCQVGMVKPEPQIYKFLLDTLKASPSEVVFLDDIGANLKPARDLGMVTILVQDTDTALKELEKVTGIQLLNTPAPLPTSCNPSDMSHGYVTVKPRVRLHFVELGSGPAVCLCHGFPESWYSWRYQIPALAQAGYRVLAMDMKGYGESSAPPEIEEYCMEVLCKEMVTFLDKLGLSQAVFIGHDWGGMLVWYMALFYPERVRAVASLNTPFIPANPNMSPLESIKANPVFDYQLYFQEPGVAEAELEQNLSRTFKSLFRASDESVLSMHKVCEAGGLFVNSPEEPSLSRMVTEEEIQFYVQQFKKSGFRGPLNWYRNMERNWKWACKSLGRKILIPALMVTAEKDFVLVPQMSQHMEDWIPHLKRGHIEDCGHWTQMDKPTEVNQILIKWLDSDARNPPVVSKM
# [12] = target: T10, C-terminal domain of sEH (sEH-H) (Homo sapiens, UniProt P34913); experiment: Differential scanning fluorimetry; type: binding; details: inhibitor 50 μM
# T10 sequence (P34913 235-555 limits assumed): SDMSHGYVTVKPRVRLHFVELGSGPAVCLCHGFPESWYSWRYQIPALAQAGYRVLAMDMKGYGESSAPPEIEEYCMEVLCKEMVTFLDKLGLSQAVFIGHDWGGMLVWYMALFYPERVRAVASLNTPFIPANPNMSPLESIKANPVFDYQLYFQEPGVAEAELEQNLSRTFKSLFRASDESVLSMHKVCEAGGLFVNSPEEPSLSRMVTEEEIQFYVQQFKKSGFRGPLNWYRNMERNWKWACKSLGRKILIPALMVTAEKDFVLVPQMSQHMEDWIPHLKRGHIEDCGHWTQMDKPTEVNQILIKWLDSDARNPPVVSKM
# [13] = target: T11, full-length human sEH (Homo sapiens, UniProt P34913); experiment: DiFMUP-based phosphatase assay, full-length sEH; details: DiFMUP substrate
# T11 sequence (P34913 1-555): T9 sequence (P34913 1-555)
# [14] = target: T12, FXR (Homo sapiens, UniProt Q96RI1); experiment: Gal4 hybrid reporter gene assay in HEK293T cells; type: cell-based; details: at 10 μM; reference GW4064 1 μM
# T12 sequence (Q96RI1 262-486 limits assumed): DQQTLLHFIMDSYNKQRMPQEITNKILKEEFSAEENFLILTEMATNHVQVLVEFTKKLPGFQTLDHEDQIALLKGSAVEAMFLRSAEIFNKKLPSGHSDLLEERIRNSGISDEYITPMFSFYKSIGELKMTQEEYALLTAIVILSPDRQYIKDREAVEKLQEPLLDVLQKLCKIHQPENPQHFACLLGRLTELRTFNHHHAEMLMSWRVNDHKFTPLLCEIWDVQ
PPARγ transactivation of the reference agonist [2],Compound,LXRα transactivation of the reference agonist [1],PPARα transactivation of the reference agonist [3],LXRβ transactivation of the reference agonist [4],PPARβ/δ transactivation of the reference agonist [5],maximum plasma concentration [6],ratio of main epoxy fatty acids to their respective diols [7],mode of inhibition [8],inhibitory potency toward sEH-P (SAR statement in words) [9],stabilization of the N-terminal domain in DSF [10],IC50 [11],stabilization of the C-terminal domain in DSF [12],mode of inhibition [13],FXR transactivation of the reference agonist [14]
inactive at 10 μM,"O=C(O)CCc1nc(-c2ccccc2)c(-c2ccccc2)o1 [compound 5, oxaprozin, reference compound]",inactive at 10 μM,inactive at 10 μM,inactive at 10 μM,inactive at 10 μM,,,,,,,,,
,"O=C(O)CCCc1nc(-c2ccc(Cl)c(Cl)c2)c(-c2ccccc2)o1 [22b, 4-(4-(3,4-Dichlorophenyl)-5-phenyloxazol-2-yl)butanoic Acid]",inactive at 10 μM,inactive at 10 μM,inactive at 10 μM,inactive at 10 μM,48 µg/mL,did not influence,competitive inhibitor,further improved the inhibitory activity,stabilized; also recorded: able to stabilize,~9 µM,did not stabilize,competitive inhibitor,inactive at 10 μM
